According to paper PMC11645656, “MRGPRX4 mediates phospho-drug associated pruritus in a humanized mouse model” (Science translational medicine, 2024):
Values joined by “and” are separate entries in the source; they are usually repeats but may differ in a detail not shown here. Identical values can stand only once. Counter-ions that a name gives are not always drawn.

Columns and labels:
NP2-WT DRG neurons = experiment: GCaMP6s calcium imaging of cultured NP2-WT DRG neurons; assay type: cell-based, mouse; details: 10 μM phospho-drugs; 1 mM CQ
Description: Fig. 2. Phosphate monoester prodrugs induce itch in NP2-MRGPRX4+ mice through activating NP2 primary sensory neurons. (A) Mating strategy to generate NP2-X4+ mice. (B) In situ hybridization showing MRGPRX4 transcripts (magenta) in NP2-X4+ DRG as indicated by arrowheads (left) but not in littermate control NP2-WT (right). NP2 subpopulation accounts for 5% of total DRG neurons. DAPI, blue. Scale bar, 50 μm. […]. Data are expressed as mean ± SEM. *p< 0.05, **p< 0.01 and ***p< 0.001 by two-tailed unpaired Student’s t-test. ns = no statistical significance observed. (D and E) Traces of average (top, depicted as mean ± 95% confidence interval) and individual (bottom, reflected by the heatmap) calcium activity, measured by fluorescence intensity normalized to the baseline intensity (FT/F0) over time of NP2-X4+ (D) and NP2-WT (E) DRG neurons labelled with GCaMP6s (n = 110–150 neurons pooled from 3–7 independent culture vessels from 2–4 mice in each condition). 10 μM phospho-drugs and 1 mM CQ were added as indicated by the arrowheads. […]
(§1) Calcium imaging data was collected with a Nikon Eclipse TE 200 microscope. Time series GCaMP6 fluorescence intensity was acquired through the FITC/GFP channel. […] Neurons with GCaMP6 signal rose above 50% of the baseline intensity after compound application were counted as positive responders and the percentage of responding neurons was calculated. […]

NP2-X4+ DRG neurons = experiment: GCaMP6s calcium imaging of cultured NP2-X4+ DRG neurons; assay type: cell-based, mouse; details: 10 μM phospho-drugs; 1 mM CQ
Description: Fig. 2. Phosphate monoester prodrugs induce itch in NP2-MRGPRX4+ mice through activating NP2 primary sensory neurons. (A) Mating strategy to generate NP2-X4+ mice. (B) In situ hybridization showing MRGPRX4 transcripts (magenta) in NP2-X4+ DRG as indicated by arrowheads (left) but not in littermate control NP2-WT (right). NP2 subpopulation accounts for 5% of total DRG neurons. DAPI, blue. Scale bar, 50 μm. […]. Data are expressed as mean ± SEM. *p< 0.05, **p< 0.01 and ***p< 0.001 by two-tailed unpaired Student’s t-test. ns = no statistical significance observed. (D and E) Traces of average (top, depicted as mean ± 95% confidence interval) and individual (bottom, reflected by the heatmap) calcium activity, measured by fluorescence intensity normalized to the baseline intensity (FT/F0) over time of NP2-X4+ (D) and NP2-WT (E) DRG neurons labelled with GCaMP6s (n = 110–150 neurons pooled from 3–7 independent culture vessels from 2–4 mice in each condition). 10 μM phospho-drugs and 1 mM CQ were added as indicated by the arrowheads. Neurons with FT/F0 > 1.5 after compound application were considered a positive responder. NP2-X4+: NP2-MRGPRX4+; DRG, dorsal root ganglia; CQ: chloroquine.
The procedures were performed following previously established protocols ([15]). Murine DRGs (from both male and female) were harvested from all spinal segments and digested in dispase (5 mg/ml) / type I collagenase (1 mg/ml) enzyme mix at 37 °C for an hour. Enzyme mix was replaced with complete DH10 media (90% DMEM/F12, 10% FBS, penicillin (100 units/ml), and streptomycin (100 μg/ml)) and gently triturated with 1 ml pipette tip until the media turned cloudy without visible tissue chunks. Dissociated tissues were filtered through a 70 μm filter and spun down 1250 rpm for 5 min at RT. Supernatant was removed and the cell pellet was resuspended in complete DH10 media. Cell suspension was then added on top of poly-D-lysine- and laminin-coated coverslips and sat for 1–2 h at 37°C. Complete DH10 media supplemented with NGF (50 ng/ml) was then added into the vessel. Neurons were allowed to recover overnight at 37°C for the next-day calcium imaging experiment.
as §1, with “channel. Before the imaging, cultured neurons were washed and equilibrated in CIB for 30 min at 37°C. In each trial, compounds (as indicated in the results) were added into the imaging chamber after a 30 s baseline GCaMP6 activity was collected.” for “channel.”

HTLA cells = experiment: PRESTO-Tango β-arrestin recruitment assay, parental HTLA cells without MRGPRX4 (control, fig. S1); assay type: cell-based
Description: Supplement NIHMS2038790-supplement-table.xlsx, sheet "fig. S1" | column: Concentration (M)

[1] = vs dexamethasone; cited from earlier work
[2] = system: NP2-X4+ mice (MRGPRX4 in Mrgpra3+ NP2 sensory neurons); experiment: Itch behavioral study (scratching bouts after subcutaneous nape injection) in NP2-X4+ mice; assay type: in vivo, mouse; details: for Scratching bouts of individual animals: NP2-X4+, 30 min after injection of 50 μl 10 mM into the nape, each cell one mouse
NP2-WT mice = experiment: Itch behavioral study (scratching bouts after subcutaneous nape injection) in littermate control NP2-WT mice; assay type: in vivo; details: 30 min after injection of 50 μl 10 mM into the nape, each cell one mouse
Description: Fig. 2. Phosphate monoester prodrugs induce itch in NP2-MRGPRX4+ mice through activating NP2 primary sensory neurons. (A) Mating strategy to generate NP2-X4+ mice. (B) In situ hybridization showing MRGPRX4 transcripts (magenta) in NP2-X4+ DRG as indicated by arrowheads (left) but not in littermate control NP2-WT (right). NP2 subpopulation accounts for 5% of total DRG neurons. DAPI, blue. Scale bar, 50 μm. […] . Data are expressed as mean ± SEM. *p< 0.05, **p< 0.01 and ***p< 0.001 by two-tailed unpaired Student’s t-test. ns = no statistical significance observed. (D and E) Traces of average (top, depicted as mean ± 95% confidence interval) and individual (bottom, reflected by the heatmap) calcium activity, measured by fluorescence intensity normalized to the baseline intensity (FT/F0) over time of NP2-X4+ (D) and NP2-WT (E) DRG neurons labelled with GCaMP6s (n = 110–150 neurons pooled from 3–7 independent culture vessels from 2–4 mice in each condition). 10 μM phospho-drugs and 1 mM CQ were added as indicated by the arrowheads. Neurons with FT/F0 > 1.5 after compound application were considered a positive responder. NP2-X4+: NP2-MRGPRX4+; DRG, dorsal root ganglia; CQ: chloroquine.
. All the animals used were heterozygous unless otherwise specified. NP2-X4+ and NP2-WT littermates were generated by crossing Mrgpra3-Cre to Rosa26-lsl-MRGPRX4 as detailed previously ([15]). NP2-X4+ mice were further crossed to homozygous Rosa26-lsl-GCaMP6s to obtain NP2-WT/GCaMP6s and NP2-X4+/GCaMP6s animals. A detailed mating strategy is illustrated in fig. S5. Pirt-Cre-GCaMP6s animals were acquired by crossing Pirt-Cre to homozygous Rosa26-lsl-GCaMP6s. Pirt-Cre animals were generated through homologous recombination as indicated previously ([37]). Rosa26-lsl-GCaMP6s mouse line was provided by Dr. Dwight Bergles’ lab at the Johns Hopkins School of Medicine.

WT mice = experiment: Itch behavioral study in WT mice across concentrations (fig. S4)
Description: Experimenters and subjects scoring the recorded videos were both blind to the mouse genotype and tested compounds. Behavioral tests comparing NP2-WT and NP2-X4+ scratching behavior were 6–12weeks old littermates including both genders. In brief, on the day preceding the experiment, animals were acclimated to the test chamber for at least 30 min and the experimenters performed mock injections 1–2 times in between. On the day of experiments, animals were habituated in test chambers for 10 min before receiving subcutaneous injection of 50ul compounds. Videos were recorded for 30 min after the injection. A bout of scratching was defined as a sustained scratching movement initiated by hindpaws toward the injection site (until the pause of the movement / withdrawal of the hindpaw). Scratching bouts were quantified within the 30 min record sessions.

MRGPRX4 (S83) = target: T1, MRGPRX4 (S83) (Homo sapiens, UniProt Q96LA9, L83S); experiment: EC50 determination, intracellular calcium mobilization in MRGPRX4 stably expressed HEK293 cells (FLIPR Calcium 5, Flexstation-3); assay type: cell-based; details: propofol series, individual replicate values
T1 construct: expressed in transfected cells
T1 sequence (Q96LA9 whole entry L83S): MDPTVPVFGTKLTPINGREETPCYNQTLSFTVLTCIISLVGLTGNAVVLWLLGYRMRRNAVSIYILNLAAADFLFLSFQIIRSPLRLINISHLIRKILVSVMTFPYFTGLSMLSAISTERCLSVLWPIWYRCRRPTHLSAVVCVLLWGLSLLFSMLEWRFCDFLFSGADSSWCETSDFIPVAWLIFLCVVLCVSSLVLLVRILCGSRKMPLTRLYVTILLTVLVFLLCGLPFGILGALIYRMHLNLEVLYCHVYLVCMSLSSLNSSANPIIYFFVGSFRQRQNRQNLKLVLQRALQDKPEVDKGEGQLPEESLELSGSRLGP
Procedure, shortened: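 EC50 came from a four-parameter logistic fit to averaged triplicate responses, each response being maximum post-stimulation signal less baseline. Intracellular calcium was monitored with Calcium 5 dye in HBSS with 20 mM HEPES, pH 7.4, after 1 h dye loading at 37 °C, using stably transfected HEK293 cells and parental controls.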

CCN(CC)CCCC(C)Nc1ccnc2cc(Cl)ccc12 (stereo not shown) [Chloroquine]
Calcium response of NP2-WT neurons (NP2-WT DRG neurons): responded | Calcium response of NP2-X4+ neurons (NP2-X4+ DRG neurons): responded

C[C@@H]1C[C@H]2[C@@H]3CCC4=CC(=O)C=C[C@]4(C)[C@@]3(F)[C@@H](O)C[C@]2(C)[C@@]1(O)C(=O)COP(=O)(O)O [Dexamethasone phosphate]
Calcium response of NP2-X4+ neurons (NP2-X4+ DRG neurons): strong calcium transients | PRESTO-Tango response (fig. S1), single replicate (HTLA cells; concentration 4.88e-7 M): 0.002254 and 0.004793 and 0.008408 and 0.006888 and 0.003935 and 0.001659 | PRESTO-Tango response (fig. S1), single replicate (HTLA cells; concentration 9.77e-7 M): 0.004343 and 0.01198 and 0.02598 and 0.007642 and 0.02244 and 0.00537 | PRESTO-Tango response (fig. S1), single replicate (HTLA cells; concentration 1.95e-6 M): 0.003939 and 0.005577 and 0.007884 and 0.006351 and 0.008709 and 0.001173 | PRESTO-Tango response (fig. S1), single replicate (HTLA cells; concentration 3.91e-6 M): 0.006644 and 0.008139 and 0.007744 and 0.01012 and 0.008517 and 0.007795 | PRESTO-Tango response (fig. S1), single replicate (HTLA cells; concentration 7.81e-6 M): 0.008709 and 0.01255 and 0.009916 and 0.01429 and 0.003964 and 0.009591 | PRESTO-Tango response (fig. S1), single replicate (HTLA cells; concentration 1.56e-5 M): 0.01013 and 0.0155 and 0.008817 and 0.01021 and 0.0162 and 0.001357 | PRESTO-Tango response (fig. S1), single replicate (HTLA cells; concentration 3.13e-5 M): 0.01293 and 0.02454 and 0.01076 and 0.01089 and 0.02171 and 0.002693 | PRESTO-Tango response (fig. S1), single replicate (HTLA cells; concentration 6.25e-5 M): 0.01139 and 0.03821 and 0.01576 and 0.0127 and 0.01288 and 0.03538 | PRESTO-Tango response (fig. S1), single replicate (HTLA cells; concentration 0.00025 M): 0.01585 and 0.06272 and 0.01054 and 0.02134 and 0.01844 and 0.04104 | PRESTO-Tango response (fig. S1), single replicate (HTLA cells; concentration 0.0005 M): 0.01737 and 0.05973 and 0.009456 and 0.02137 and 0.0304 and 0.02084 | Enhancement of aqueous solubility [1]: more than 500 fold | Scratching bouts of individual animals [2]: 19 and 29 and 40 and 22 and 17 and 35 and 2 and 71 and 63 and 41 | Scratching bouts of individual animals (NP2-WT mice): 4 and 14 and 5 (2×) and 8 and 3 (2×) and 18 and 12 and 42 | Scratching bouts (each well represents individual mouse) (WT mice; 1 mM subcutaneous nape injection): 5 and 12 and 10 and 47 | Scratching bouts (each well represents individual mouse) (WT mice; 10 mM subcutaneous nape injection): 2 and 30 and 18 and 13

CC(C)c1cccc(C(C)C)c1OS(=O)(=O)O [Propofol sulfate]
Fig. 1D dose-response, calcium response at Concentration (M) (MRGPRX4 (S83); 9.76563e-7 M): -9.765 and -0.941 and -3.534 and -7.698 and -0.440 and -6.103 and -0.412 and -8.690 and -5.139 | Fig. 1D dose-response, calcium response at Concentration (M) (MRGPRX4 (S83); 1.95313e-6 M): 6.750 and 16.267 and 9.058 and 9.006 and 15.719 and 7.351 and 7.826 and 16.017 and 8.232 | Fig. 1D dose-response, calcium response at Concentration (M) (MRGPRX4 (S83); 3.90625e-6 M): 4.213 and 7.941 and 5.294 and 9.099 and 3.195 and 5.153 and 8.684 and 2.706 and 6.058 | Fig. 1D dose-response, calcium response at Concentration (M) (MRGPRX4 (S83); 7.8125e-6 M): -1.463 and -6.718 and -3.371 and -0.821 and -4.964 and -5.766 and -0.353 and -2.243 and -8.955 | Fig. 1D dose-response, calcium response at Concentration (M) (MRGPRX4 (S83); 1.5625e-5 M): -10.261 and -6.059 and -2.116 and -7.312 and -10.479 and -0.646 and -4.250 and -7.396 and -6.790 | Fig. 1D dose-response, calcium response at Concentration (M) (MRGPRX4 (S83); 3.125e-5 M): -14.578 and -1.085 and -26.180 and -14.763 and -11.464 and -15.617 and -4.490 and -19.590 and -17.764 | Fig. 1D dose-response, calcium response at Concentration (M) (MRGPRX4 (S83); 6.25e-5 M): -6.291 and -44.109 and -11.407 and -17.994 and -28.042 and -15.772 and -23.530 and -32.512 and -5.766 | Fig. 1D dose-response, calcium response at Concentration (M) (MRGPRX4 (S83); 0.00025 M): -9.210 and -19.710 and -18.950 and -19.770 and -23.073 and -5.027 and -19.240 and -15.426 and -13.204 | Fig. 1D dose-response, calcium response at Concentration (M) (MRGPRX4 (S83); 0.0005 M): -0.269 and -0.640 and -0.169 and -0.708 and -0.172 and -0.198 and -0.248 and -0.541 and -0.289 | Fig. 1D dose-response, calcium response at Concentration (M) (MRGPRX4 (S83); 0.001 M): 6.469 and 6.229 and 2.832 and 5.169 and 2.033 and 8.329 and 8.781 and 6.580 and 0.170 | Scratching / itch behavior, NP2-X4+ mice vs WT littermates ([2]; 50 μl 10 mM nape injection, 30 min): no differences in itch behavior were detected | Scratching bouts of individual animals [2]: 4 and 14 (2×) and 2 and 12 (2×) and 11 and 42 and 6 | Scratching bouts of individual animals (NP2-WT mice): 15 and 0 and 6 and 5 and 3 and 11
